Values of other authors in US5998416A, “Piperazine, piperidine and tetrahydropyridine derivatives as 5-HT receptor agonists” (Merck Sharp & Dohme Ltd., priority 1996, dated 1999).

Conditions: therapeutic doses

CNS(=O)(=O)Cc1ccc2[nH]cc(CCN(C)C)c2c1 [sumatriptan]
adverse cardiovascular events in humans: certain adverse cardiovascular events
